Experimental data published in patent US20240147991A1, “Diphenyl Tablets and Methods of Preparing the Same” (Ideaz, LLC, priority 2018, published 2024).

Assay: Evaluation of sublimation of diphenyl tablets versus granules exposed to air
Type: physicochemical
Settings: 22 days; 1.06 grams substance at start; empty tray 1 3.715 grams (tablets), empty tray 2 3.650 grams (granules)
Excerpt: Two trays were fashioned from equal sized sheets of aluminum foil and tape. The trays were each weighed after fashioning, with tray 1 weighing 3.715 grams and tray 2 weighing 3.650 grams (a weight difference between trays of 0.065 grams). Two compressed diphenyl tablets handled with tweezers were first weighed at a total weight of 1.06 grams and then placed into tray 1. An equal amount of diphenyl granules (i.e., having a total weight of 1.06 grams) was spooned into tray 2.
Both trays were exposed to air over 22 days and re-weighed. Tray 1 weighed 4.45 grams and tray 2 weighed 3.99 grams. After adjusting the weight difference of the trays by subtracting 0.065 grams from tray 1, it can be seen that the diphenyl tablets sublimed at a slower rate than the diphenyl granules by retaining 8.88 weight % more than the granules after being exposed to air for 22 days.

## c1ccc(-c2ccccc2)cc1 [diphenyl granules, diphenyl]
  Weight of tray with substance after exposure to air: 3.99 grams
